Patent publication US8759300B2, “Polypeptides and methods of use” (The Research Foundation for the State University of New York, priority 2007, dated 2014)
No end group written: not given here.

What was measured:
[1] = test system: TGF-β1 binding to intact human plasma FN; assay: Inhibition of I125 TGF-β1 binding to immobilized FN by growth factor peptide; conditions: increasing concentrations of peptide; 25° C., 2 hours
Protocol: (§1) FIG. 9. Inhibition of TGF-β1 and PDGF-BB binding to intact human plasma FN with TGF-β1 and PDGF-BB FN-binding peptides, respectively. FN was adsorbed onto tissue culture plastic at a concentration of 0.125 μM and then excess protein-binding sites of the plastic blocked with 2% bovine serum albumin. Growth factor labeled with I^125 was incubated with FN-coated plates at 25° C. for 2 hours in the presence or absence of peptide. Data was calculated as [(GF binding in presence of peptide−background)/(GF binding in absence of peptide-background)]×100. n=3.
(§2) Two of these synthetic peptides (homologous to TGF-β1 and homologous to PDGF-BB) inhibit TGF-β1 and PDGF-BB binding to FN respectively (FIG. 9). Inhibition of TGF-β1 and PDGF-BB binding to intact human plasma FN was determined as follows. FN was adsorbed onto tissue culture plastic at a concentration of 0.125 μM and then excess protein-binding sites of the plastic blocked with 2% bovine serum albumin. Growth factor labeled with I^125 was incubated with FN-coated plates at 25° C. for 2 hours in the presence or absence of peptide. For example, relative binding of TGF-β1 to immobilized FN was determined for increasing concentrations of the synthetic peptide homologous to TGF-β1. […] For example, relative binding of PDGF-BB to immobilized FN was determined for increasing concentrations of the synthetic peptide homologous to PDGF-BB. […]

[2] = test system: PDGF-BB binding to intact human plasma FN; assay: Inhibition of I125 PDGF-BB binding to immobilized FN by growth factor peptide; conditions: increasing concentrations of peptide; 25° C., 2 hours
Protocol: as §1, §2

FN-null cells = assay: FN-null cell assay, peptides added directly to medium on FNIII8-11; assay type: cell-based, mouse; conditions: peptide added directly to media with or without PDGF-BB
Protocol: FIG. 6. FN-null fibroblast response to soluble, unconjugated P5 (SEQ ID NO:37). FN-null cells were cultured at 4,000 cells/well in 96 well plates precoated with 0.125 mM of FNIII8-11 in DMEM for 4 hrs, and then further incubated in DMEM+2% BSA with or without the indicated concentrations of Peptide 5 at 37° C. for 3 days. Cells were counted in three 10× fields in each of 4 wells (mean±SD, n−12).
Scrambled variants of peptides 1 and 5 had no activity in these assays.
Variants of peptide 5 derived from fibronectin were generated by removing one amino acid at a time from the N-terminus or C-terminus of Peptide 5 (Table 2). These peptides (P12-P24) were added directly to medium with or without PDGF-BB.

AHDF cells = assay: AHDF proliferation response to PDGF-BB, XTT assay; assay type: cell-based, human; conditions: 30 ng/mL PDGF-BB, 1 week
Protocol: FIG. 7. […] AHDF cells were cultured at 4,000 cells/well in uncoated 96-well plates. Cells were incubated in DMEM for 4 hrs, and then further incubated in DMEM, 2% BSA, 30 ng/mL PDGF-BB with and without Peptide 5 (P5) at 37° C. for 1 week. Proliferation was estimated by the XTT assay (Promega) according to the manufacturer's instructions (mean±SD, n=4).

[3] = biological target: T1, TGF-β1 binding to recombinant FN domain (Homo sapiens, UniProt P01137); assay: Inhibition by peptide of TGF-β1 binding to recombinant FN domains
T1 construct: made in house; host or cells: E. coli BL21DE3LysS (FN domains only)

[4] = biological target: T2, PDGF-BB binding to FNIII1, FNIII12-14 and IIICS (Homo sapiens, UniProt P01127); assay: Inhibition by peptides of PDGF-BB binding to FN domains; conditions: all three FN domains
T2 construct: made in house; host or cells: E. coli BL21DE3LysS (FN domains only)
Text: To further localize PDGF-BB binding within FNIIII, we acquired a peptide from the central 76 amino acids (aa) of FNIII1 (FN630-704) (FIG. 4), which has anti-angiogenic properties and promotes FN polymerization. […] Next, we looked for sequence homologies within the two halves of the peptide and discovered the sequence pattern noted above ([QN]-X(1,2)-[ST]-X(0,1)-[IG]-[QS]-[KRQ]-[YTM]-[IG]-X(4,5)-X(0,1)-[KR]-X(1,2)-X(1,2)-[RT]-X(1,2)-[KQTS]-X(2)-T) (SEQ ID NO:30) (see peptides 1-4). […] These findings may explain similar PDGF-BB binding among FN heparin-binding domains, FNIII12-V15, FNIII12-15, FNIII12-14, FNIII12-13, and IIICS. […] Next, we determined if PDGF-BB-binding peptides from FNIII1 could inhibit PDGF-BB binding to FNIII1, FNIII12-14 and IIICS. For initial experiments we selected peptide 1 and peptide 2. For control, we used scrambled peptide 1.

[5] = biological target: T3, bFGF binding to recombinant FN domain (Homo sapiens, UniProt P09038); assay: Inhibition by peptide of bFGF binding to recombinant FN domains
T3 construct: made in house; host or cells: E. coli BL21DE3LysS (FN domains only)
T3 sequence (P09038 134-288 limits assumed): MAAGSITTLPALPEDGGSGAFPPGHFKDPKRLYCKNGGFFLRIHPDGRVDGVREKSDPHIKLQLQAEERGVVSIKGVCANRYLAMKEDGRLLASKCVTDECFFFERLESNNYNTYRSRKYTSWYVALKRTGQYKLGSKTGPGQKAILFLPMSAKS

T1 sequence (P01137 279-390 limits assumed): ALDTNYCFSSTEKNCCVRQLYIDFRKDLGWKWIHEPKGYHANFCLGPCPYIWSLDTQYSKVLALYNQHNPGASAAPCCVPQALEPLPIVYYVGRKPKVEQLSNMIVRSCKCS
T2 sequence (P01127 82-190 limits assumed): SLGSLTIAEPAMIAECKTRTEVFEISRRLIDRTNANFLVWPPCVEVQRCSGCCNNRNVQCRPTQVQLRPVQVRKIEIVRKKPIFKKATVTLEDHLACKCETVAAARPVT
TGF-β1 binding to intact human plasma FN, sequence (P02751 610-812 limits assumed): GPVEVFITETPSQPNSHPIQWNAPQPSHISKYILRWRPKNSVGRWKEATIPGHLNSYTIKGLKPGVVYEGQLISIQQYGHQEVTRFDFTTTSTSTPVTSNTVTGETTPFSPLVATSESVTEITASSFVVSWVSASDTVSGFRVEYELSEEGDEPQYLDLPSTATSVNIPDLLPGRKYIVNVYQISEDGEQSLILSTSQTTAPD
TGF-β1 binding to intact human plasma FN, sequence (P02751 1815-2080 limits assumed): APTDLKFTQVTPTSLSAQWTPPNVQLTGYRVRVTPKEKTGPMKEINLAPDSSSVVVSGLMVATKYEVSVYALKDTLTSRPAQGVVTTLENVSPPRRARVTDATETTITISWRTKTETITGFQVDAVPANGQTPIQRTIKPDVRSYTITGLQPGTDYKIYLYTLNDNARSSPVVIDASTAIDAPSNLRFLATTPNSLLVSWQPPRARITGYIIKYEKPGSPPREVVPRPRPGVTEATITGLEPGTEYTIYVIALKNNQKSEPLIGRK
PDGF-BB binding to intact human plasma FN, sequence (P02751 610-812 limits assumed): as the sequence (P02751 610-812 limits assumed) above
PDGF-BB binding to intact human plasma FN, sequence (P02751 1815-2080 limits assumed): as the sequence (P02751 1815-2080 limits assumed) above

Question: How did the “Proportion of full-length TGF-β1 bound to immobilized FN” value [1] turn out when “CCVRQLYIDFRKDLG [synthetic peptide homologous to TGF-β1]” was run?
Answer: Its value is “decreased with increasing concentration”.

Question: How did the “Proportion of full-length PDGF-BB bound to immobilized FN” value [2] turn out when “CKTRTEVFEISRRLI [synthetic peptide homologous to PDGF-BB]” was run?
Answer: Its value is “decreased with increasing concentration”.

Question: What does the source list for QPSHISKYILRWRPK [P5, QPSHISKYILRWRPK]?
Answer: FN null cell survival and proliferation (FN-null cells): supported FN null cell survival and proliferation; AHDF proliferation response to PDGF-BB (AHDF cells): enhanced AHDF proliferation response to PDGF-BB

Question: With QPSHISKYILRWRPKNSVGRWKEAT [peptide 1] as the sequence, how does the “Inhibition of TGF-β1 binding to any recombinant FN domain” value [3] read?
Answer: Its value is “completely inhibited”.

Question: What about the “FN null cell survival and proliferation” value (FN-null cells) of the same sequence?
Answer: The value was “supported FN null cell survival and proliferation”.

Question: And the “Inhibition of PDGF-BB binding to FNIII1, FNIII12-14 and IIICS” value [4]?
Answer: Its value is “marked inhibition”.

Question: What about the “Inhibition of bFGF binding to any recombinant FN domain” value [5] of the same sequence?
Answer: Its value is “completely inhibited”.
